Experimental data: ChEMBL document CHEMBL1131526, “Non-peptidic HIV protease inhibitors: C2-symmetry-based design of bis-sulfonamide dihydropyrones” (Bioorg Med Chem Lett, 1998)
pIC50, pKi: −log10 of the molar value.

Columns and labels:
[1] = target: Human immunodeficiency virus type 1 protease (Human immunodeficiency virus 1, UniProt Q72874); test: Compound was evaluated for in vitro inhibition of human immunodeficiency virus type 1 (HIV-1) Protease
[2] = target: Human immunodeficiency virus type 1 protease (Human immunodeficiency virus 1) (UniProt Q72874); test: Compound was evaluated for in vitro inhibition of human immunodeficiency virus type 1 (HIV-1) Protease at 1 uM concentration
[3] = Compound was evaluated for in vitro inhibition of human immunodeficiency virus type 1 (HIV-1) Protease

Compound	pKi [1]	inhibition [2] [%]	pIC50 [3]
CCC(C1=C(O)OC(CC)(c2cccc(NS(=O)(=O)c3cccc4cccnc34)c2)CC1=O)c1cccc(NS(=O)(=O)c2cccc3cccnc23)c1 (stereo unspecified)		35	
CCCC1(CCc2ccccc2)CC(=O)C(C(CC)c2cccc(NS(=O)(=O)c3cn(C)cn3)c2)=C(O)O1 (stereo unspecified)	9.00		6.30
CCC(C1=C(O)OC(CC)(c2cccc(NS(=O)(=O)c3ccc(C#N)cc3)c2)CC1=O)c1cccc(NS(=O)(=O)c2ccc(C#N)cc2)c1 (stereo unspecified)		19	

The next lines start with results.

pKi [1]	inhibition [2] [%]	Compound	pIC50 [3]
8.33		CCC(C1=C(O)OC(CC)(c2cccc(NS(=O)(=O)c3cn(C)cn3)c2)CC1=O)c1cccc(NS(=O)(=O)c2cn(C)cn2)c1 (stereo unspecified)	
10.00		CCC(C1=C(O)OC(CC)(c2cccc(NS(=O)(=O)c3ccc(C#N)cn3)c2)CC1=O)c1cccc(NS(=O)(=O)c2ccc(C#N)cn2)c1 (stereo unspecified)	
